In patent US20100272710A1, “COMPOSITIONS AND METHODS FOR TREATING AND PREVENTING AGING-ASSOCIATED DISEASES” (priority 2009, published 2010):
Read-outs that look alike come from different tables or passages of the source.

What was measured:
[1] = target: glucose 6 phosphate dehydrogenase, G6PD (Homo sapiens, UniProt P11413); assay: G6PD activity in protein extract (NADPH production); settings: 30 min at 37° C.; for activity of G6PD: protein extract 100 ug
Description: Protein extract (100 _g) was incubated with DHEA or resveratrol at the indicated concentrations, after 30 min at 37° C., the activity of G6PD was measured as described in the methods section.

[2] = tested on: Sirt1; type: cell-based; settings: aortic smooth muscle cells, Western blot
Description: (§1) Effects of limited glucose availability, resveratrol and DHEA on expression of TXNIP and Sirt1 in normal cells. Aortic smooth muscle cells (4A) and human embryonic stem cells (4B) were treated as described in FIG. 1 for cancer cells. Expression Sirt1 and TXNIP were analyzed by Western blot using specific antibodies. Antibody to GAPDH was used as loading control. (Glc: glucose; Resv: Resveratrol).
(§2) In order to obtain information on the physiological relevance of targeting Sirt1 and TXNIP in normal tissues, we investigated the effect of limited glucose availability, resveratrol and DHEA in differentiated aortic smooth muscle cells, and non-differentiated, human embryonic stem cells.

[3] = tested on: TXNIP; assay: Western blot of TXNIP expression in cancer cells (SaOS2, RGC); type: cell-based; settings: for expression of TXNIP: increasing concentrations, Western blot
Description: (§3) SaOS2 cells were incubated in the presence of reduced glucose levels in the culture medium for 48 hours. Expression of TXNIP and Sirt1 were determined by Western blot using specific antibodies. Antibody to _-Actin was used as a loading control.
(§4) The RGC (4C) and SaOS2 (4D) cells were subjected to treatment with increasing concentrations of resveratrol (Resv.) for 48 hours followed by Western blot as described in Panel A.
(§5) SaOS2 cells were treated with increasing amounts of DHEA and probed for expression of Sirt1 and TXNIP; beta-actin was used as a loading control.
The cells were treated with different concentrations of glucose with or without DHEA. After 48 hours in cultures, proteins were separated by electrophoresis and probed for TXNIP. Staining with beta-actin antibody was used as a loading control.
(§6) The effects of limited glucose availability (used here to mimic the effect of calorie restriction), resveratrol (an activator of Sirt1) and DHEA (used for hormone replacement therapy), on the expression of TXNIP and Sirt1 were determined by Western blot using specific antibodies to the corresponding proteins (FIG. 4).

[4] = tested on: Sirt1; type: cell-based; settings: increasing concentrations, Western blot
Description: as §3, §4, §5, §6

[5] = tested on: TXNIP; assay: Western blot of TXNIP expression in aortic smooth muscle cells; type: cell-based
Description: as §1, §2

[6] = tested on: TXNIP; assay: Western blot of TXNIP expression in human embryonic stem cells BG01V; type: cell-based
Description: as §1
(§7) To test whether cellular proliferative capacity may account for this difference, we measured expression of Sirt1 and TXNIP in embryonic stem cells known for rapid self renewal ability. The human embryonic stem cells, BG01V, were subjected to glucose restriction or treatment with either resveratrol or DHEA under similar conditions to those described in FIG. 4. […] In contrast, the consistent inhibition of TXNIP by limited glucose availability in cancer cells as well as in differentiated smooth muscle cells and non-differentiated stem cells, is indicative of a potential role of this gene in mediating the anti-aging action of calorie restriction.

[7] = tested on: TXNIP; assay: TXNIP expression in organs of treated mice (Western blot); type: in vivo; settings: CD1 mice, 10 mg/Kg i.p., 2 days
Description: (§8) Tissue distribution of Sirt1 and TXNIP in mice and their regulation by resveratrol and DHEA. Mice CD1 strain were injected (i.p.) with 10 mg/Kg of either resveratrol or DHEA and after 2 days, the animals were sacrificed and organs harvested and processed by Western blot for the expression of Sirt1 and TXNIP. Staining with GAPDH was used as a loading control.
(§9) In order to determine whether the observed effects in vitro could be also valid in vivo, we have subjected the nude mice (CD1 strain, Charles River) to treatment with either resveratrol or DHEA (10 mg/Kg each) for 2 days. The animals were then sacrificed and major organs harvested to analyze expression of Sirt1 and TXNIP by Western blot.

[8] = tested on: Sirt1; assay: Western blot of Sirt1 expression in human embryonic stem cells BG01V; type: cell-based
Description: as §1, §7

[9] = tested on: AMPK; assay: Phosphorylation of AMPK in cells (Western blot, anti-phospho-AMPK Thr172); type: cell-based; settings: for AMPK phosphorylation: osteosarcoma cells SaOS2, 48 hours
Description: SaOS2 cells were treated with increasing concentrations of resveratrol for 48 hours, after what, proteins were extracted and probed either with anti-phospho-AMPK (Thr172), or with antibody to AMPK.
RGC cells were incubated with 20 or 100 μM resveratrol or DHEA 100 μM for 48 hours, and then probed for phosphor-AMPK and AMPK as described above.
However, the relevance of this action to the regulation of TXNIP by resveratrol and the possible implication of DHEA in regulating this pathway are not yet investigated. […] Further confirmation of this link will help establish TXNIP inhibition as an important determinant for evaluating the efficacy of putative anti-aging interventions.

[10] = tested on: Sirt1; assay: Sirt1 expression in organs of treated mice (Western blot); type: in vivo; settings: CD1 mice, 10 mg/Kg i.p., 2 days
Description: as §8, §9

[11] = retinal glial cells (RGC), 48 hours

glucose 6 phosphate dehydrogenase, G6PD, sequence (P11413 whole entry): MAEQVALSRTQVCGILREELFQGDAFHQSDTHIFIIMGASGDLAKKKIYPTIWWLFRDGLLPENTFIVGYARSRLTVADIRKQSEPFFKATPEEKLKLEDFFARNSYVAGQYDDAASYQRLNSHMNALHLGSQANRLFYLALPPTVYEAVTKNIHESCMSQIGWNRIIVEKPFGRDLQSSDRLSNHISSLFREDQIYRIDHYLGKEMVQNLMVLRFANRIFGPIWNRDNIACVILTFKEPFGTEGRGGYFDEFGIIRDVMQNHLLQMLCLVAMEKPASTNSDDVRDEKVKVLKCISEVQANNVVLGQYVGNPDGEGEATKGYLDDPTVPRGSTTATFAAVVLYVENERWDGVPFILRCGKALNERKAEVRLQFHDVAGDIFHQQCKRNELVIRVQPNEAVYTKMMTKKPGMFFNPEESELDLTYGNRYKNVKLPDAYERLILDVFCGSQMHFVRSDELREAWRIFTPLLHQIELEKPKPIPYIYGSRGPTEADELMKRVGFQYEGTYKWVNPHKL

SMILES	activity of G6PD [1]	inhibitory effect on G6PD observed ([1]; protein extract, assay based on production of NADPH)	expression of Sirt1 [2]	expression of TXNIP ([3]; SaOS2 cells)	effects of glucose on TXNIP expression after pre-treatment ([3]; cells with different concentrations of glucose with or without DHEA, 48 hours)	expression of Sirt1 ([4]; SaOS2 cells)	expression of TXNIP [5]	expression of TXNIP [6]	expression of TXNIP in the lung [7]	expression of TXNIP in the muscle [7]	expression of Sirt1 [8]	AMPK phosphorylation [9]	expression of Sirt1 in most tissues [10]	expression of TXNIP ([3]; RGC cells, 48 hours)	expression of Sirt1 ([4]; RGC cells, 48 hours)	AMPK phosphorylation (p-AMPK) [9, 11]	expression of AMPK [9, 11]
C[C@]12CC[C@H](O)CC1=CC[C@@H]1[C@@H]2CC[C@]2(C)C(=O)CC[C@@H]12 [DHEA, dehydroepiandrosterone]	strongly inhibited and in a dose dependent manner	50%	without effect	decreased expression	almost completely blocked	decreased expression	without effect	none of these genes was affected	inhibited the expression	inhibitory effect	none of these genes was affected	without effect	not significantly affect				
Oc1ccc(C=Cc2cc(O)cc(O)c2)cc1 [resveratrol]	no effect		no significant changes in Sirt1 expression	stimulatory action at low concentrations and inhibition at higher ones		suppressed the expression	inhibited the expression of TXNIP in a dose dependent manner	none of these genes was affected	inhibited the expression	only DHEA had an inhibitory effect in the muscle	none of these genes was affected	induced AMPK phosphorylation	not significantly affect	stimulatory action at low concentrations and inhibition at higher ones	suppressed the expression	readily activates	without affecting expression
